Laboratory results as given in paper PMC11676982, “Heterotropic Activation of Cytochrome P450 3A4 by Perillyl Alcohol” (Pharmaceutics, 2024).
Read-outs that look alike come from different tables or passages of the source.

Experiments:
CYP2A6 [1] = biological target: T1, CYP2A6 (Homo sapiens, UniProt P11509); assay: Direct CYP inhibition assay in pooled HLMs, CYP2A6 (coumarin); format: in vitro ADME; details: pooled HLMs 0.2 mg/mL; substrate coumarin 5 μM; 10 min; 95% CI in parentheses; read-out: IC50 against CYP2A6
T1 sequence (P11509 1-494): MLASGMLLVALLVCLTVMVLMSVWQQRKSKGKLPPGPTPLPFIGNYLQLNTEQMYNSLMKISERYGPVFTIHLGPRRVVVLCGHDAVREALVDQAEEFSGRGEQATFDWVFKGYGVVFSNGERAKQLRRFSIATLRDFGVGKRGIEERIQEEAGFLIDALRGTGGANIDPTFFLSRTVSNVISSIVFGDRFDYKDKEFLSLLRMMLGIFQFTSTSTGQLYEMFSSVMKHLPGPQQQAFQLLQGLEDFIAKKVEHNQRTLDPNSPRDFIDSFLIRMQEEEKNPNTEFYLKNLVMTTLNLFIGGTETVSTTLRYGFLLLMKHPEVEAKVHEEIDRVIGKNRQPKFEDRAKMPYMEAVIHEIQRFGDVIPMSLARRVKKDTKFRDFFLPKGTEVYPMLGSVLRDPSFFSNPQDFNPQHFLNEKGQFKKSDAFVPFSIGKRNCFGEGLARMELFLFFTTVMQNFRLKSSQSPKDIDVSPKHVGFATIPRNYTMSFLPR

CYP2E1 = CYP2E1 (Homo sapiens, UniProt P05181); assay: Direct CYP inhibition assay in pooled HLMs, CYP2E1 (chlorzoxazone); format: in vitro ADME; details: pooled HLMs 0.2 mg/mL; substrate chlorzoxazone 50 μM; 10 min; read-out: IC50 against CYP2E1
Chain of CYP2E1 (P05181 whole entry): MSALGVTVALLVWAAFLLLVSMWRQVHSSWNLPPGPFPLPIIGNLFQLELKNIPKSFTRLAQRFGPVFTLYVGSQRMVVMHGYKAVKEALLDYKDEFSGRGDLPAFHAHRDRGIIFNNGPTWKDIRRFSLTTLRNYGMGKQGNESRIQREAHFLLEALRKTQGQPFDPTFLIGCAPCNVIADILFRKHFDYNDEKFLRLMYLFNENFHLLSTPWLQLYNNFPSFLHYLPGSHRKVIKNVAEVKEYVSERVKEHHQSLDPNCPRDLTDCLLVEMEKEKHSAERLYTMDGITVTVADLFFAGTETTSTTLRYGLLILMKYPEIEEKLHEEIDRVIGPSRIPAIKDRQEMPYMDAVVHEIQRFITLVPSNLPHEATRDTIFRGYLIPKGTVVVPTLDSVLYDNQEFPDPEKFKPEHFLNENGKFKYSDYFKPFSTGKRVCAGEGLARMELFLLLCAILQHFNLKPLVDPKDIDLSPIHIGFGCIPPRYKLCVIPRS

CYP3A4 [2] = biological target: T2, CYP3A4 (Homo sapiens, UniProt P08684); assay: Kinetic parameters of MDZ hydroxylation in pooled HLMs in the presence of (−)-POH; format: in vitro ADME; details: 100 μM (−)-POH
T2 sequence (P08684 whole entry): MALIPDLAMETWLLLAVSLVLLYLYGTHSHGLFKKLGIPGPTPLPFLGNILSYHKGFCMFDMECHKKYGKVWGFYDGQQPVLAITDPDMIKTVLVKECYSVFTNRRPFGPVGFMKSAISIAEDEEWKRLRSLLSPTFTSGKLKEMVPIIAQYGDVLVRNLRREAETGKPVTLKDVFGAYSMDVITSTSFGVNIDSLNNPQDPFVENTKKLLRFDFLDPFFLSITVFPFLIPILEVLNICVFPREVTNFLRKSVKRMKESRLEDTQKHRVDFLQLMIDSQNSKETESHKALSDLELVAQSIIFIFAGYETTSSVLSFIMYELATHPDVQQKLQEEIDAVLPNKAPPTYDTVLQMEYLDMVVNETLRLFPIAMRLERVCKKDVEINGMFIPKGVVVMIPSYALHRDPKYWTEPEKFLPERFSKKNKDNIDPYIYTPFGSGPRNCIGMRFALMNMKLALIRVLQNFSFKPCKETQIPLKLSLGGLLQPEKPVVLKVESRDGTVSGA
Experimental: The supernatants obtained after centrifuging at 3000× g for 20 min at 4 °C were injected into LC-MS/MS for analysis. The experiment was performed using four separate samples.
Kinetic parameters were estimated using GraphPad Prism to plot activities against the log of MDZ concentration in the presence of (–)-POH.

rCYP3A4 = biological target: T3, rCYP3A4 (Homo sapiens, UniProt P08684); assay: Enzyme activity assay using rCYP3A4 with or without cytochrome b5 (MDZ 1′-hydroxylation); format: biochemical
T3 construct: host or cells: baculovirus-transfected insect cells
T3 sequence (P08684 whole entry): as above
Experimental: Incubation mixtures (final volume, 200 μL) contained 0.1 M PPB (pH 7.4), 50 pmol/mL rCYP3A4 with or without cytochrome b5, 1 mM NADPH, 5 μM MDZ, and POH (0–100 μM). After preincubating for 5 min, the reactions were initiated by adding 1 mM NADPH and incubated for 10 min. […] The experiment was performed using three separate samples.

CYP2C9 [3] = biological target: T4, CYP2C9 (Homo sapiens, UniProt P11712); assay: Effect of POH on fimasartan (FMS) metabolism in pooled HLMs: CYP2C9-mediated hydroxy butyl FMS formation; format: in vitro ADME; details: FMS 30 μM, 95% CI in parentheses; for IC50: pooled HLMs, 10 min
T4 sequence (P11712 whole entry): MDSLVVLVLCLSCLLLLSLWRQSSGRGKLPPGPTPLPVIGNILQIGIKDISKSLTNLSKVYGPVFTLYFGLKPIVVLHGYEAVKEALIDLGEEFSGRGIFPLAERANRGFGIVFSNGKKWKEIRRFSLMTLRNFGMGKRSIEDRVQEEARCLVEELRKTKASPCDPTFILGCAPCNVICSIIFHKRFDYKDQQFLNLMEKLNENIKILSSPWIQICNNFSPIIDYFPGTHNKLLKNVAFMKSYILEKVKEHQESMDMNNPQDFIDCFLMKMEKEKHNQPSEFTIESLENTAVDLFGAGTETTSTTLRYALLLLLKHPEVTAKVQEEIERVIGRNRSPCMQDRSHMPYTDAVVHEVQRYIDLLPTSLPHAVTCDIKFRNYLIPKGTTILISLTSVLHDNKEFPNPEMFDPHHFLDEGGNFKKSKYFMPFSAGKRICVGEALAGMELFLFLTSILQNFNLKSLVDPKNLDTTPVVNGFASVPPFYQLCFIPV
Experimental: (§1) The substrates were applied at a concentration that approximated their Km values. The reactions were preincubated for 5 min before being initiated with the addition of 1 mM NADPH. After 10 min incubation, reactions containing atorvastatin, buspirone, FMS, or nifedipine were terminated by the addition of 200 μL of ice-cold acetonitrile with 100 nM carbamazepine as an internal standard. For terminating reactions with donepezil or tadalafil, 200 μL of ice-cold methanol containing 0.5% (v/v) formic acid and 1 μM carbamazepine as internal standard was added to samples. […] The experiment was performed using three separate samples.

CYP3A4 and CYP2C9 = assay: Effect of POH on fimasartan (FMS) metabolism in pooled HLMs: FMS S-oxide formation; format: in vitro ADME, human; details: FMS 30 μM, (−)-POH 3.2–100 μM
Experimental: as §1

CYP2C9 [4] = biological target: T4, CYP2C9; details: microsomes, 10 min, 50 μM, pH 7.4
CYP3A4 [5] = biological target: T2, CYP3A4
Experimental: To assess the effect of POH on the kinetics of the formation of 1′-hydroxymidazolam (1′-OH-MDZ) and 4-hydroxymidazolam (4-OH-MDZ), 5 μM MDZ was incubated with POH (0–100 μM) in hHOs for 24 h at 37 °C in a CO2 incubator. Samples were incubated in 24-well culture plates, with each well containing a total volume of 0.7 mL. At 2, 4, 6, and 24 h, 70 μL of medium was sampled, and reaction termination was achieved by adding an equal volume of ice-cold acetonitrile containing 100 nM carbamazepine as an internal standard. The supernatants were analyzed using LC-MS/MS after centrifugation at 10,000× g for 10 min at 4 °C. […] Data were normalized for protein concentrations measured using the Pierce™ BCA Protein Assay Kit (Thermo Fisher Scientific, Waltham, MA, USA) following the manufacturer’s instructions. The experiment was performed using four separate samples.

CYP2A6 [6] = biological target: T1, CYP2A6; assay: biochemical
Experimental: A 5 min pre-incubation was performed prior to initiating reactions with the addition of 1 mM NADPH. After incubation at 37 °C for 10 min, 200 μL of ice-cold acetonitrile containing 100 nM carbamazepine as an internal standard was added to terminate the reaction. The samples were agitated and centrifuged at 4 °C for 20 min at 3000× g. The supernatants were transferred to a 96-well plate for LC-MS/MS analysis. The experiment was performed using three separate samples.
Data acquired from the evaluation of enzyme inhibition using various concentrations of substrates and test compounds were fit to different models (competitive, noncompetitive, uncompetitive, or mixed), and inhibition constant (Ki) and goodness of fit values were obtained using GraphPad Prism. The appropriate type of inhibition was selected based on statistical goodness of fit tests including Akaike’s information criterion (AICc) with correction for small sample size and the standard deviation of the residuals (Sy.x).

CYP1A2 = biological target: T5, CYP1A2 (Homo sapiens, UniProt P05177); assay: Direct CYP inhibition assay in pooled HLMs, CYP1A2 (phenacetin); details: up to 50 μM
T5 sequence (P05177 1-516): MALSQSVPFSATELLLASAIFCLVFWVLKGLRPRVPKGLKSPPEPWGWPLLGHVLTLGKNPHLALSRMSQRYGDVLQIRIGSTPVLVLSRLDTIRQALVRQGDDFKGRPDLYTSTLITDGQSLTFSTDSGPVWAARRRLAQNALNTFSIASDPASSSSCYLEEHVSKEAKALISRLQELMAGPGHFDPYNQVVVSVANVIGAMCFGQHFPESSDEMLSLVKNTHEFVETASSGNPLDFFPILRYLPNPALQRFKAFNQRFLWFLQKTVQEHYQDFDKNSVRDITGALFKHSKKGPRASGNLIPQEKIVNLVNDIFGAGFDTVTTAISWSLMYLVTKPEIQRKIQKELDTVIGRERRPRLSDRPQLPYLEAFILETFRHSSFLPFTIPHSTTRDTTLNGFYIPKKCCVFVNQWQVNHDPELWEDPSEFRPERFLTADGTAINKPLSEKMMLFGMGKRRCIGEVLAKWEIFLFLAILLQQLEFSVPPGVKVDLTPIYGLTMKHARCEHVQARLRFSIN

CYP2C9 [7] = biological target: T4, CYP2C9; assay: Direct CYP inhibition assay in pooled HLMs, CYP2C9 (tolbutamide)

SMILES: C=C(C)[C@@H]1CC=C(CO)CC1 [(−)-POH, (−)-perillyl alcohol]
- IC50 (CYP2A6 [1]): 15.7 µM
- IC50 (CYP2E1): > 50 µM
- Increase of Vmax/Km value of MDZ 1′-hydroxylation compared with absence of (−)-POH (CYP3A4 [2]): 2.67 fold
- Increase of Vmax/Km value of MDZ 1′-hydroxylation compared with absence of (−)-POH (CYP3A4 [2]; listed as POH): 2.7 fold
- Enhancement of MDZ 1′-hydroxylation (rCYP3A4; rCYP3A4 in the absence of cytochrome b5, POH 0–100 μM): No significant enhancement
- CYP3A4 activity for 1′-OH-MDZ formation compared with control without (−)-POH (rCYP3A4; rCYP3A4 in the presence of cytochrome b5, 100 μM (−)-POH, 5 μM MDZ): 1.57 fold
- IC50 (CYP2C9 [3]; IC50 against formation of 1-hydroxy butyl FMS): 123 µM
- IC50 (CYP2C9 [3]; IC50 against formation of 4-hydroxy butyl FMS): 63 µM
- IC50 at 10 min (CYP2C9 [3]; human, pooled human liver microsomes, pH 7.4, pooled HLMs, read-out: IC50 against formation of 2- or 3-hydroxy butyl FMS): 62 µM
- Formation of FMS S-oxide (CYP3A4 and CYP2C9): reduced
- CYP2C9 activity, % of the control level (CYP2C9 [4]): 64.2%
- Rate of 1′-OH-MDZ formation in hHOs (CYP3A4 [5]; 2.5 μM): 1.86 (1.64–2.07) pmol/h/mg protein
- Rate of 1′-OH-MDZ formation in hHOs (CYP3A4 [5]; 10 μM): 2.04 (1.88–2.20) pmol/h/mg protein
- Rate of 1′-OH-MDZ formation in hHOs (CYP3A4 [5]; 25 μM): 2.34 (2.18–2.49) pmol/h/mg protein
- Rate of 1′-OH-MDZ formation in hHOs (CYP3A4 [5]; 50 μM): 3.21 (2.93–3.48) pmol/h/mg protein
- Formation rate of 4-OH-MDZ in hHOs (CYP3A4 [5]; 100 μM): 0.159 ± 0.016 pmol/h/mg protein
- Increase of the rate of 1′-OH-MDZ formation compared with absence of (−)-POH (CYP3A4 [5]; 100 μM): 2.05 fold
- Ki (CYP2A6 [6]): 6.35 µM
- Inhibition of CYP1A2 activity (CYP1A2): not significantly inhibited
- IC50 (CYP2C9 [7]): > 50 µM
